Values belong to the molecule of their own block, whether it stands above or below them.
Key:
[1] = system: T1, dimeric PPO from Huaniu apple peel; test: spectrophotometric oxidation assay, Lineweaver-Burk; format: biochemical, Malus domestica; conditions: pH 5.0 citrate phosphate buffer, 25 °C
T1 construct: gene PPO2; native, purified from fruit peel (ammonium sulfate, DEAE-sepharose, Sephadex G-200); soluble PPO; about 140 kDa by native-PAGE and SDS-PAGE, 61 kDa monomer by urea-SDS-PAGE, homodimer
Text: spectrophotometric oxidation assay, Lineweaver-Burk on dimeric PPO from Huaniu apple peel

[2] = system: T1, dimeric PPO from Huaniu apple peel; test: spectrophotometric oxidation assay at […] nm, Lineweaver-Burk; format: biochemical, Malus domestica; conditions: pH 5.0 citrate phosphate buffer, 25 °C; abstract 1.17, b44 prints 1.16

Km [1]: 2470 µM
SMILES: Cc1ccc(O)c(O)c1 [4-methylcatechol]

Km [1]: 4630 µM
SMILES: Oc1cc(O)c2c(c1)O[C@H](c1ccc(O)c(O)c1)[C@@H](O)C2 [CT, (+)-catechin]

Km [2]: 1170 µM
SMILES: Oc1cc(O)c2c(c1)O[C@H](c1ccc(O)c(O)c1)[C@H](O)C2 [EC, (−)-epicatechin]

SMILES: Oc1ccccc1O [catechol]
Km ([1]; text prints 0.60): 610 µM

Km ([1]; text b44 prints 1.29, table value agrees with its Vmax/Km): 2220 µM
SMILES: O=C(/C=C/c1ccc(O)c(O)c1)O[C@@H]1C[C@](O)(C(=O)O)C[C@@H](O)[C@H]1O [chlorogenic acid]

From PMC9223062, “Purification and Characterization of a Dark Red Skin Related Dimeric Polyphenol Oxidase from Huaniu Apples” (Foods, 2022)
